Data from patent US10670605B2, “Cysteine reactive probes and uses thereof” (The Scripps Research Institute, priority 2015, dated 2020).

Columns and labels:
Experiment in all cases: Competitive isoTOP-ABPP in situ (fragment-treated cells)
Assay type in all cases: cell-based
[1] = biological target: T1, cysteines in MDA-MB-231 and Ramos cells (Homo sapiens, UniProt P50570)
T1 sequence (P50570 1-870): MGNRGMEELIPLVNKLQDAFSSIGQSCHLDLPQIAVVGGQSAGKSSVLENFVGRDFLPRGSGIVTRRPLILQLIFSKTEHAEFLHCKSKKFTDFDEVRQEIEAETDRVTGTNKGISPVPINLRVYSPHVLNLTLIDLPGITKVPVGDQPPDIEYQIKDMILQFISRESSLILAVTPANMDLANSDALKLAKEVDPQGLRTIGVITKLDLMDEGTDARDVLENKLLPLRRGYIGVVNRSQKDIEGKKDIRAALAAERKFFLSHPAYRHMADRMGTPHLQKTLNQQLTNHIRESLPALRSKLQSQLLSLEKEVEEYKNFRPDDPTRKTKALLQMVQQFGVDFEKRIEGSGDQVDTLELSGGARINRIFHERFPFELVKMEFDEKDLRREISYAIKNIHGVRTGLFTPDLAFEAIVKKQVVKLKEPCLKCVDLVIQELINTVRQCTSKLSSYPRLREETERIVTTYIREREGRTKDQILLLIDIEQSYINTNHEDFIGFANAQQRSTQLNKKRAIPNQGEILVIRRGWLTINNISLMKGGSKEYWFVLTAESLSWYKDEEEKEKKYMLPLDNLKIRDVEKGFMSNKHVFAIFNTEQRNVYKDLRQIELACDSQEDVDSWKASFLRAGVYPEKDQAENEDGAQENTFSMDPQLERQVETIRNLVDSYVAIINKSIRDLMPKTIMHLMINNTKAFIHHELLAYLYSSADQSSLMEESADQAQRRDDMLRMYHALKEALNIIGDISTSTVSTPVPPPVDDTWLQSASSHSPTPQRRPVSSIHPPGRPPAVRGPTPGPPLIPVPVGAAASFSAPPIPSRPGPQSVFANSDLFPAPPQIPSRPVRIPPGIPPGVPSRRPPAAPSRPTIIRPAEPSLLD

[2] = biological target: cysteines in MDA-MB-231 and Ramos cells (Homo sapiens, UniProt Q02252)
cysteines in MDA-MB-231 and Ramos cells (Homo sapiens, UniProt Q02252), sequence (Q02252 34-535): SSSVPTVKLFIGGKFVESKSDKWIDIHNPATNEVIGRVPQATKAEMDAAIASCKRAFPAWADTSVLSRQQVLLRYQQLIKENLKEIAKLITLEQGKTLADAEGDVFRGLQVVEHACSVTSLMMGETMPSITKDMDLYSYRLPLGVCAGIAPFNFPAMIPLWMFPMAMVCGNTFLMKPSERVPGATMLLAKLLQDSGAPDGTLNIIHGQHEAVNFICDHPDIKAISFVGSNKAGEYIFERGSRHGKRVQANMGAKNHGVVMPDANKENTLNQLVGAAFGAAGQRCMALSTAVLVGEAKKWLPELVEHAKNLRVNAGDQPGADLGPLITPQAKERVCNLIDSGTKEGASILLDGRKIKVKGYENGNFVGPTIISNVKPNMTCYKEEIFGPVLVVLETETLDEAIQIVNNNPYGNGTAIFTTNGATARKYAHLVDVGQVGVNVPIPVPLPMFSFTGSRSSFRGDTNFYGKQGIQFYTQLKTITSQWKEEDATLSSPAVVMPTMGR

[3] = biological target: T2, cysteines in MDA-MB-231 and Ramos cells (Homo sapiens, UniProt Q9NYL9)
T2 sequence (Q9NYL9 1-352): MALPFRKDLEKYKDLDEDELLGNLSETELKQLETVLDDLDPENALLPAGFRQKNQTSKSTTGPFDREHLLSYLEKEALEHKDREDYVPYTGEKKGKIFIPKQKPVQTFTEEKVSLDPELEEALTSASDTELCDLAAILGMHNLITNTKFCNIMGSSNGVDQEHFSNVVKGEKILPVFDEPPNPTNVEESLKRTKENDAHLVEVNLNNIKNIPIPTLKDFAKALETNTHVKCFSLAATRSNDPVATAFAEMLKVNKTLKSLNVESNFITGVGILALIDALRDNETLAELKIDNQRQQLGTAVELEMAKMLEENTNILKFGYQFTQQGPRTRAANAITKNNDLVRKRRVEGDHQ

[4] = biological target: cysteines in MDA-MB-231 and Ramos cells (Homo sapiens, UniProt O00299)
[5] = biological target: cysteines in MDA-MB-231 and Ramos cells (Homo sapiens, UniProt Q9Y696)
cysteines in MDA-MB-231 and Ramos cells (Homo sapiens, UniProt Q9Y696), sequence (Q9Y696 whole entry): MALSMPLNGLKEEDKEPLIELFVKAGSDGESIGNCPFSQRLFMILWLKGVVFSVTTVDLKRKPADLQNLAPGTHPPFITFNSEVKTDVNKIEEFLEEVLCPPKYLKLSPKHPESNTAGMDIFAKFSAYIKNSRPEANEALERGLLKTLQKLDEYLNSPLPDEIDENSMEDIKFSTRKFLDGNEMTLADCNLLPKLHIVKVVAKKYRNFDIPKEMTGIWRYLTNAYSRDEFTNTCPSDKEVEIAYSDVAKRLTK

[6] = biological target: T3, cysteines in MDA-MB-231 and Ramos cells (Homo sapiens, UniProt Q96T76)
T3 sequence (Q96T76 1-1030): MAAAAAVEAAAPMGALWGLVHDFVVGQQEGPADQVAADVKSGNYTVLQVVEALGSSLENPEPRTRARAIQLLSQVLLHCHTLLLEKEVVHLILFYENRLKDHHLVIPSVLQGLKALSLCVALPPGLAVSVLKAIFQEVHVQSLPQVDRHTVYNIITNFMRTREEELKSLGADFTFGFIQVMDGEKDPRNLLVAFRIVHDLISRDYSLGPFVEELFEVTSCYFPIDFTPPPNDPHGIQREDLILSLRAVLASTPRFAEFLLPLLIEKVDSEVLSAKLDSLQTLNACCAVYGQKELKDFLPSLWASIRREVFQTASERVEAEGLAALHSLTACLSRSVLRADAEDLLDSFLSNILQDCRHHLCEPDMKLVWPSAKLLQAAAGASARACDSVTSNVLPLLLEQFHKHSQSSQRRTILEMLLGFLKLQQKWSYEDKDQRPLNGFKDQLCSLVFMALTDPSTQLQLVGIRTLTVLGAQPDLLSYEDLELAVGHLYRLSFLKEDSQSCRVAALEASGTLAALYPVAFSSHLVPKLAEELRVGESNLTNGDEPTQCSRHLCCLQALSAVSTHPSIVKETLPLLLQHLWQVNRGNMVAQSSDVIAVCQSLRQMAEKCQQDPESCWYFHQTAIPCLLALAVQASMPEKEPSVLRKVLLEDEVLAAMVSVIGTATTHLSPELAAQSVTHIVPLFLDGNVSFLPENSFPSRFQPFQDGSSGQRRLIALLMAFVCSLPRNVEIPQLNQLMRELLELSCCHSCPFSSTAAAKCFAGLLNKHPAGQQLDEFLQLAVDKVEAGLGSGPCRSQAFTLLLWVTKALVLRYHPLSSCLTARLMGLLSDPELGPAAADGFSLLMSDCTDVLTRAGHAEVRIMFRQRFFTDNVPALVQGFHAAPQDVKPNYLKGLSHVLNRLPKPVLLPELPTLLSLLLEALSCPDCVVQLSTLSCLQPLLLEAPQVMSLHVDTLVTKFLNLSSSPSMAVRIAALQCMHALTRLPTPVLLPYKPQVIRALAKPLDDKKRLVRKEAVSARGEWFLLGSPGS

[7] = biological target: T4, cysteines in MDA-MB-231 and Ramos cells (Homo sapiens, UniProt Q99439)
T4 sequence (Q99439 1-309): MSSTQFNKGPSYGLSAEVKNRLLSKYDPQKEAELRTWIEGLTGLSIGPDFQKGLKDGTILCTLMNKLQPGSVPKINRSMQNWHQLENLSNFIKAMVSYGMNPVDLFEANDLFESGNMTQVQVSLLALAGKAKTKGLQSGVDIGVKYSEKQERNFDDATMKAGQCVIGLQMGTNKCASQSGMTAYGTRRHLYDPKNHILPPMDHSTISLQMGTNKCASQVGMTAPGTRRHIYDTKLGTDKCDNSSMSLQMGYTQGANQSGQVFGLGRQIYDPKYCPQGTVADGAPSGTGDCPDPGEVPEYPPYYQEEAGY

[8] = biological target: cysteines in MDA-MB-231 and Ramos cells (Homo sapiens, UniProt Q9BUH6); conditions: 200 μM, insitu, 231
cysteines in MDA-MB-231 and Ramos cells (Homo sapiens, UniProt Q9BUH6), sequence (Q9BUH6 whole entry): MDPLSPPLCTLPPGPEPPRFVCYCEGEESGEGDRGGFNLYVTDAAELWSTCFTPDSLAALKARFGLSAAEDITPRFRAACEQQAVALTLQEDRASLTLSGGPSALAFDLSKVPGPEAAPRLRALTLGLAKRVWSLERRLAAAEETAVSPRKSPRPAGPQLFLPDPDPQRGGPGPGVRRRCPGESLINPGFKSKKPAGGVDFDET

SMILES | isoTOP-ABPP ratio P50570_C27 ([1]; 200 μM, insitu, 231) | isoTOP-ABPP ratio Q02252_C317 ([2]; 200 μM, insitu, 231) | isoTOP-ABPP ratio Q9NYL9_C132 ([3]; 200 μM, insitu, 231) | isoTOP-ABPP ratio O00299_C24 ([4]; 200 μM, insitu, 231) | isoTOP-ABPP ratio Q9Y696_C35 ([5]; 200 μM, insitu, 231) | isoTOP-ABPP ratio Q96T76_C819 ([6]; 200 μM, insitu, 231) | isoTOP-ABPP ratio Q96T76_C848 ([6]; 200 μM, insitu, 231) | isoTOP-ABPP ratio Q99439_C164 ([7]; 200 μM, insitu, 231) | isoTOP-ABPP ratio Q9BUH6_C180 [8] | further results
COc1ccc2c(c1)CCCN2C(=O)CCl [compound 2] | – | – | – | – | – | – | – | – | – | isoTOP-ABPP reactivity P50570_C27 DNM2 ([1]; 200 μM, insitu, 231): 4.6; isoTOP-ABPP reactivity Q02252_C317 ALDH6A1 ([2]; 200 μM, insitu, 231): 10.3; isoTOP-ABPP reactivity Q9NYL9_C132 TMOD3 ([3]; 200 μM, insitu, 231): 2.2; isoTOP-ABPP reactivity O00299_C24 CLIC1 ([4]; 200 μM, insitu, 231): 9.5; isoTOP-ABPP reactivity Q9Y696_C35 CLIC4 ([5]; 200 μM, insitu, 231): 1.7; isoTOP-ABPP reactivity Q96T76_C848 MMS19 ([6]; 200 μM, insitu, 231): 3.9
CC(C)CCOCCNC(=O)CCl [compound 27] | 0.5 | 2.0 | 0.6 | 0.7 | 1.0 | 0.5 | 0.5 | – | – | –
O=C(CCl)NC(=O)NC12CC3CC(CC(C3)C1)C2 [compound 12] | 0.7 | 3.2 | 0.6 | 20.0 | 20.0 | – | 20.0 | 0.9 | 1.4 | –
O=C(CCl)NC12CC3CC(CC(C3)C1)C2 [compound 21] | 0.8 | 1.5 | 1.4 | 0.7 | 1.1 | – | 0.7 | 0.9 | – | –
O=C(CCl)N1CCN(S(=O)(=O)c2ccccc2F)CC1 [compound 10] | 3.1 | 1.5 | – | 5.0 | 2.7 | – | 2.5 | 1.2 | 3.8 | isoTOP-ABPP ratio Q02252_C317 ([2]; 200 μM, insitu, ramos): 0.7; isoTOP-ABPP ratio Q99439_C164 ([7]; 200 μM, insitu, ramos): 1.3; isoTOP-ABPP ratio Q9Y696_C35 ([5]; 200 μM, insitu, ramos): 1.6; isoTOP-ABPP ratio, cysteine Q96T76_C819 ([6]; 200 μM, insitu, ramos): 3.0
Cn1cc(S(=O)(=O)N2CCOCC2)cc1C(=O)NC(=O)CCl [compound 11] | – | – | – | – | – | – | – | – | – | isoTOP-ABPP ratio P50570_C27 ([1]; 100 μM in situ 231): 0.7; isoTOP-ABPP ratio Q02252_C317 ([2]; 100 μM in situ 231): 0.9; isoTOP-ABPP ratio Q99439_C164 ([7]; 100 μM in situ 231): 0.6; isoTOP-ABPP ratio Q9NYL9_C132 ([3]; 100 μM in situ 231): 0.5; isoTOP-ABPP ratio O00299_C24 ([4]; 100 μM in situ 231): 2.5; isoTOP-ABPP ratio Q9Y696_C35 ([5]; 100 μM in situ 231): 1.9; isoTOP-ABPP ratio, cysteine Q96T76_C819 ([6]; 100 μM in situ 231): 0.8
COc1ccccc1OCCNC(=O)CCl [compound 28] | – | 1.1 | 0.7 | – | 2.7 | – | 0.8 | 0.9 | 1.1 | –
COc1cc2c(cc1OC)CN(C(=O)CCl)CC2 [compound 8] | – | – | – | – | – | – | – | – | – | isoTOP-ABPP reactivity Q99439_C164 CNN2 ([7]; 200 μM, insitu, 231): 1.1; isoTOP-ABPP reactivity Q9NYL9_C132 TMOD3 ([3]; 200 μM, insitu, 231): 0.9; isoTOP-ABPP reactivity O00299_C24 CLIC1 ([4]; 200 μM, insitu, 231): 10.3; isoTOP-ABPP reactivity Q9BUH6_C180 C9orf142 [8]: 6.6; isoTOP-ABPP reactivity Q9Y696_C35 CLIC4 ([5]; 200 μM, insitu, 231): 4.7; isoTOP-ABPP reactivity Q96T76_C848 MMS19 ([6]; 200 μM, insitu, 231): 1.7
O=C(CCl)NCCc1c[nH]c2ccccc12 [compound 13] | – | 1.3 | – | – | 2.3 | – | 0.6 | 0.9 | 1.1 | isoTOP-ABPP ratio P50570_C27 ([1]; 200 μM, insitu, ramos): 1.0; isoTOP-ABPP ratio Q99439_C164 ([7]; 200 μM, insitu, ramos): 1.3; isoTOP-ABPP ratio O00299_C24 ([4]; 200 μM, insitu, ramos): 1.8; isoTOP-ABPP ratio Q9Y696_C35 ([5]; 200 μM, insitu, ramos): 3.2; isoTOP-ABPP ratio Q96T76_C848 ([6]; 200 μM, insitu, ramos): 1.5
O=C(CCl)N1CCC(Cc2ccccc2)CC1 [compound 9] | – | – | – | – | – | – | – | – | – | isoTOP-ABPP reactivity Q99439_C164 CNN2 ([7]; 200 μM, insitu, 231): 4.7; isoTOP-ABPP reactivity Q9NYL9_C132 TMOD3 ([3]; 200 μM, insitu, 231): 7.6; isoTOP-ABPP reactivity O00299_C24 CLIC1 ([4]; 200 μM, insitu, 231): 3.0; isoTOP-ABPP reactivity Q9BUH6_C180 C9orf142 [8]: 2.8; isoTOP-ABPP reactivity Q9Y696_C35 CLIC4 ([5]; 200 μM, insitu, 231): 2.6; isoTOP-ABPP reactivity Q96T76_C848 MMS19 ([6]; 200 μM, insitu, 231): 20.0

Now from value to molecule, other results behind:

isoTOP-ABPP ratio P50570_C27 ([1]; 200 μM, insitu, 231) | isoTOP-ABPP ratio Q02252_C317 ([2]; 200 μM, insitu, 231) | isoTOP-ABPP ratio Q9NYL9_C132 ([3]; 200 μM, insitu, 231) | isoTOP-ABPP ratio O00299_C24 ([4]; 200 μM, insitu, 231) | isoTOP-ABPP ratio Q9Y696_C35 ([5]; 200 μM, insitu, 231) | isoTOP-ABPP ratio Q96T76_C819 ([6]; 200 μM, insitu, 231) | isoTOP-ABPP ratio Q96T76_C848 ([6]; 200 μM, insitu, 231) | isoTOP-ABPP ratio Q99439_C164 ([7]; 200 μM, insitu, 231) | isoTOP-ABPP ratio Q9BUH6_C180 [8] | SMILES | further results
0.5 | 0.8 | 0.3 | 0.6 | 0.6 | 0.6 | 0.7 | 0.4 | 0.6 | Cc1ccc(C=C(C#N)C(=O)NCCN2CCOCC2)cc1 [compound 41] | –
15.4 | 2.6 | 0.9 | – | 1.4 | 20.0 | 20.0 | 1.8 | 5.5 | CC1CCc2ccccc2N1C(=O)CCl (stereo not shown) [compound 45] | –
1.1 | – | 0.8 | – | 2.6 | – | – | – | – | O=C(CCl)Nc1cccc2ncccc12 [compound 51] | –
0.9 | 2.4 | 2.6 | 1.0 | 1.0 | 4.6 | – | 1.5 | 1.4 | C=CC(=O)Nc1cc(F)c(N2CCN(C(=O)OC(C)(C)C)CC2)c(F)c1 [compound 38] | –
– | – | 0.7 | 0.6 | 0.6 | 20.0 | 20.0 | 0.7 | 0.8 | C=CC(=O)N(Cc1cccnc1)c1cc(C(F)(F)F)cc(C(F)(F)F)c1 [compound 31] | isoTOP-ABPP ratio Q99439_C164 ([7]; 200 μM, insitu, ramos): 1.3; isoTOP-ABPP ratio Q9NYL9_C132 ([3]; 200 μM, insitu, ramos): 0.7; isoTOP-ABPP ratio Q96T76_C819 ([6]; 200 μM, insitu, ramos): 20.0
